Results: patent US20230310334A1, “LIPID NANOPARTICLE” (SHENZHEN SHENXIN BIOTECHNOLOGY CO., LTD., priority 2020, published 2023)

Tested on: luciferase mRNA (Fluc mRNA) expression
Assay: Luciferase mRNA delivery performance in vivo of lipid nanoparticles prepared from amino lipid compounds (IVIS imaging)
Set-up: species or system BALB/c mice
Settings: for Average fluorescence intensity (subcutaneous) / Average fluorescence intensity (intramuscular) / Average fluorescence intensity (tail vein): Fluc mRNA LNP, 0.5 mg/kg, imaging 6 hours after injection, male BALB/c mice; for Average fluorescence intensity (subcutaneous) / Average fluorescence intensity (intramuscular): preparation process I (DOPE); for Average fluorescence intensity (tail vein): preparation process II (DSPC); for delivery capacity after introduction of the alkynyl group: in vivo delivery, compared with corresponding amino lipid compounds without alkynyl group (36, 37)
Procedure: Example 40: Evaluation of Luciferase mRNA Delivery Performance In Vivo of Lipid Nanoparticles Prepared from Amino Lipid Compounds
Preparation of lipid nanoparticles:
Preparation process I: The amino lipid compound described in the present invention and DOPE, cholesterol, PEG2000-DMG were mixed and dissolved in absolute ethanol in a molar ratio of 45:10:42.5:2.5. Two microinjection pumps were used, and the ratio of ethanol solution to sodium acetate solution (50 mM, pH=4.0) was controlled to be 1:3. A crude solution of lipid nanoparticles was prepared in a micro flow channel chip, then dialyzed for 6 hours with 1×PBS at a controlled temperature of 4° C. by using a dialysis cassette (Fisher, MWCO 20,000), and filtered with a 0.22 μm microporous filter membrane before use. The mass ratio of the amino lipid compound to luciferase mRNA (Fluc mRNA) was about 10:1. The administration route included subcutaneous and intramuscular injections.
Preparation process II: the molar ratio of amino lipid compound to DSPC, cholesterol, PEG2000-DMG was 50:10:38.5:1.5, and the preparation process was identical to the preparation process I. The administration route was tail vein administration.
Animal preparation: 6-week-old male BALB/c mice with body weights of about 20 g were selected, and fed in an SPF-grade feeding room. Animal experiments were strictly carried out according to the guidelines of the national health institution and the requirements of animal ethics. In vivo delivery: 9 mice were randomly selected per group and injected with lipid nanoparticles at a dose of 0.5 mg/kg by three administration routes: subcutaneous, intramuscular, and tail vein, respectively (three animals per administration route). After 6 hours, […] of 10 mg/mL potassium […] was injected into each mouse via the tail vein, and after 10 minutes, the mice were placed under an in vivo imaging system (IVIS-200, Xenogen), and the total fluorescence intensity of each mouse was observed and recorded by photographing. The expression intensities of Fluc mRNA delivered by the three administration routes of representative amino lipid compounds were shown in Tables 1-3. DLin-MC3 was used as a control.

CCCCC#CCOC(=O)CCCCCCCN(CCCO)CCCCCCCC(=O)OC(CCCCCCCC)CCCCCCCC [Compound 1]
Average fluorescence intensity (subcutaneous): 1.4E+07

CCCCCC#CCOC(=O)CCCCCCCN(CCCO)CCCCCCCC(=O)OC(CCCCCCCC)CCCCCCCC [Compound 2]
Average fluorescence intensity (intramuscular): 2.4E+06
Average fluorescence intensity (subcutaneous): 1.1E+07

CCCCCCC#CCOC(=O)CCCCCCCN(CCCO)CCCCCCCC(=O)OC(CCCCCCCC)CCCCCCCC [Compound 3]
Average fluorescence intensity (intramuscular): 2.1E+06
Average fluorescence intensity (subcutaneous): 2.1E+06
Average fluorescence intensity (tail vein): 2.1E+07

CCCCCCCC#CCOC(=O)CCCCCCCN(CCCO)CCCCCCCC(=O)OC(CCCCCCCC)CCCCCCCC [Compound 4]
Average fluorescence intensity (intramuscular): 2.1E+06
Average fluorescence intensity (subcutaneous): 2.1E+05
Average fluorescence intensity (tail vein): 2.9E+07

CCCCC#CCCOC(=O)CCCCCCCN(CCCO)CCCCCCCC(=O)OC(CCCCCCCC)CCCCCCCC [Compound 5]
Average fluorescence intensity (subcutaneous): 7.1E+06

CCCCCC#CCCOC(=O)CCCCCCCN(CCCO)CCCCCCCC(=O)OC(CCCCCCCC)CCCCCCCC [Compound 6]
Average fluorescence intensity (intramuscular): 2.1E+05
Average fluorescence intensity (subcutaneous): 2.1E+06

CCCCCCC#CCCOC(=O)CCCCCCCN(CCCO)CCCCCCCC(=O)OC(CCCCCCCC)CCCCCCCC [Compound 7]
Average fluorescence intensity (intramuscular): 4.1E+05
Average fluorescence intensity (subcutaneous): 2.1E+05
Average fluorescence intensity (tail vein): 8.1E+06

CCCC#CCCCOC(=O)CCCCCCCN(CCCO)CCCCCCCC(=O)OC(CCCCCCCC)CCCCCCCC [Compound 8]
Average fluorescence intensity (intramuscular): 2.1E+07
Average fluorescence intensity (subcutaneous): 7.1E+06
Average fluorescence intensity (tail vein): 6.1E+06

CCCCC#CCCCOC(=O)CCCCCCCN(CCCO)CCCCCCCC(=O)OC(CCCCCCCC)CCCCCCCC [Compound 9]
Average fluorescence intensity (intramuscular): 5.1E+06
Average fluorescence intensity (subcutaneous): 2.7E+06
Average fluorescence intensity (tail vein): 2.8E+07

CCCCCC#CCCCOC(=O)CCCCCCCN(CCCO)CCCCCCCC(=O)OC(CCCCCCCC)CCCCCCCC [Compound 10]
Average fluorescence intensity (intramuscular): 2.1E+05
Average fluorescence intensity (subcutaneous): 3.1E+05
Average fluorescence intensity (tail vein): 2.5E+07

CCCCCCC#CCCCOC(=O)CCCCCCCN(CCCO)CCCCCCCC(=O)OC(CCCCCCCC)CCCCCCCC [Compound 11]
Average fluorescence intensity (intramuscular): 2.1E+06
Average fluorescence intensity (subcutaneous): 2.1E+05
Average fluorescence intensity (tail vein): 5.1E+07

CCCCCC#CCOC(=O)CCCCCCCN(CCO)CCCCCCCC(=O)OC(CCCCCCCC)CCCCCCCC [Compound 12]
Average fluorescence intensity (intramuscular): 2.1E+06
Average fluorescence intensity (subcutaneous): 3.2E+07

CCCCCCC#CCOC(=O)CCCCCCCN(CCO)CCCCCCCC(=O)OC(CCCCCCCC)CCCCCCCC [Compound 13]
Average fluorescence intensity (intramuscular): 2.1E+06
Average fluorescence intensity (subcutaneous): 2.6E+07

CCCCCCC#CCCOC(=O)CCCCCCCN(CCO)CCCCCCCC(=O)OC(CCCCCCCC)CCCCCCCC [Compound 14]
Average fluorescence intensity (intramuscular): 4.1E+06
Average fluorescence intensity (subcutaneous): 2.1E+06
Average fluorescence intensity (tail vein): 1.1E+07

CCCCC#CCCOC(=O)CCCCCCCN(CCCCO)CCCCCCCC(=O)OC(CCCCCCCC)CCCCCCCC [Compound 15]
Average fluorescence intensity (intramuscular): 2.8E+07
Average fluorescence intensity (subcutaneous): 3.1E+05

CCCCCC#CCCOC(=O)CCCCCCCN(CCCCO)CCCCCCCC(=O)OC(CCCCCCCC)CCCCCCCC [Compound 16]
Average fluorescence intensity (intramuscular): 1.4E+07
Average fluorescence intensity (subcutaneous): 2.7E+06

CCCCC#CCCCOC(=O)CCCCCCCN(CCCCO)CCCCCCCC(=O)OC(CCCCCCCC)CCCCCCCC [Compound 17]
Average fluorescence intensity (intramuscular): 2.7E+06
Average fluorescence intensity (subcutaneous): 2.5E+06
Average fluorescence intensity (tail vein): 5.1E+07
delivery capacity after introduction of the alkynyl group: significantly enhanced

CCCCC#CCCCOC(=O)CCCCCCCN(CCCCCCCC(=O)OC(CCCCCCCC)CCCCCCCC)C1CC(O)C1 (stereo not drawn) [Compound 18]
Average fluorescence intensity (tail vein): 7.1E+07

CCCCCC#CCCCOC(=O)CCCCCCCN(CCCCCCCC(=O)OC(CCCCCCCC)CCCCCCCC)C1CCC(O)C1 (stereo not drawn) [Compound 19]
Average fluorescence intensity (intramuscular): 2.1E+05
Average fluorescence intensity (tail vein): 9.1E+06

CCCCCC#CCCCOC(=O)CCCCCCCN(CCCCCCCC(=O)OC(CCCCCC)CCCCCCCC)C1CCC(O)C1 (stereo not drawn) [Compound 20]
Average fluorescence intensity (intramuscular): 5.2E+05
Average fluorescence intensity (subcutaneous): 3.7E+07

CCCCCC#CCCCOC(=O)CCCCCCCN(CCCCCCCC(=O)OC(CCCCCCCC)CCCCCCCC)C1CCC(O)CC1 (stereo not drawn) [Compound 21]
Average fluorescence intensity (intramuscular): 1.1E+07
Average fluorescence intensity (subcutaneous): 4.1E+06

CCCCC#CCCCOC(=O)CCCCN(CCCCO)CCCCCCCC(=O)OC(CCCCCCCC)CCCCCCCC [Compound 22]
Average fluorescence intensity (intramuscular): 3.1E+05
Average fluorescence intensity (subcutaneous): 2.8E+07

CCCCC#CCCCOC(=O)CCCCCCCCCN(CCCCO)CCCCCCCC(=O)OC(CCCCCCCC)CCCCCCCC [Compound 23]
Average fluorescence intensity (intramuscular): 2.7E+05
Average fluorescence intensity (tail vein): 6.1E+07

CCCCC#CCCCOC(=O)CCCCCCCCCCCCCN(CCCCO)CCCCCCCC(=O)OC(CCCCCCCC)CCCCCCCC [Compound 24]
Average fluorescence intensity (intramuscular): 2.1E+05
Average fluorescence intensity (tail vein): 7.8E+06

CCCCC#CCCCOC(=O)CCCCCCCCCCCCCN(CCCO)CCCCCCCC(=O)OC(CCCC)CCCC [Compound 25]
Average fluorescence intensity (intramuscular): 2.1E+05
Average fluorescence intensity (subcutaneous): 2.6E+07

CCCCC#CCCCOC(=O)CCCCCCCCCCCCCN(CCCO)CCCCCCCC(=O)OC(CCCC)CCCCCC (stereo not drawn) [Compound 26]
Average fluorescence intensity (intramuscular): 6.1E+07
Average fluorescence intensity (subcutaneous): 1.7E+06

CCCCC#CCCCOC(=O)CCCCN(CCCO)CCCCCCCC(=O)OCC(CCCCCC)CCCCCCCC (stereo not drawn) [Compound 28]
Average fluorescence intensity (intramuscular): 6.1E+07
Average fluorescence intensity (subcutaneous): 2.1E+06

CCCCCCCCCC#CC(=O)OCCCCCCCN(CCCO)CCCCCCCOC(=O)C(CCCCCC)CCCCCCCC (stereo not drawn) [Compound 29]
Average fluorescence intensity (intramuscular): 1.8E+07
Average fluorescence intensity (subcutaneous): 8.1E+06

CCCC#CCCCOC(=O)CCCCCCCN(CCCC#N)CCCCCCCC(=O)OC(CCCCCCCC)CCCCCCCC [Compound 30]
Average fluorescence intensity (intramuscular): 1.1E+07
Average fluorescence intensity (subcutaneous): 7.1E+06

CCCCC#CCCCOC(=O)CCCCCCCN(CCCCCCCC(=O)OC(CCCCCCCC)CCCCCCCC)CCCN(C)C [Compound 31]
Average fluorescence intensity (intramuscular): 1.5E+07
Average fluorescence intensity (subcutaneous): 5.1E+05
delivery capacity after introduction of the alkynyl group: significantly enhanced

CCCC#CCCCOC(=O)CCCCCCCN(CCCCCCCC(=O)OC(CCCCCCCC)CCCCCCCC)CCCN1CCOCC1 [Compound 32]
Average fluorescence intensity (intramuscular): 2.8E+07
Average fluorescence intensity (subcutaneous): 7.1E+05

CCCCC#CCCCOC(=O)CCCCCCCN(CCCCCCCC(=O)OC(CCCCCCCC)CCCCCCCC)CCCOC(=O)CCCCC [Compound 33]
Average fluorescence intensity (intramuscular): 1.1E+07
Average fluorescence intensity (subcutaneous): 3.1E+06

CCCCC#CCCCOC(=O)CCCCCCCN(CCCCCCCC(=O)OC(CCCCCCCC)CCCCCCCC)CCCNC(=O)CCCCC [Compound 34]
Average fluorescence intensity (intramuscular): 4.8E+06
Average fluorescence intensity (subcutaneous): 5.3E+05

CCCCC/C=C\C/C=C\CCCCCCCCC(CCCCCCCC/C=C\C/C=C\CCCCC)OC(=O)CCCN(C)C [Compound 35, (6Z,9Z,28Z,31Z)-heptatriacont-6,9,28,31-tetraene-19-yl 4-(N,N-dimethylamino)butanoate, reference compound]
Average fluorescence intensity (intramuscular): 3.9E+03
Average fluorescence intensity (subcutaneous): 4.1E+04
Average fluorescence intensity (tail vein): 6.2E+06

CCCCCCCCCOC(=O)CCCCCCCN(CCCCO)CCCCCCCC(=O)OC(CCCCCCCC)CCCCCCCC [Compound 36, reference compound]
Average fluorescence intensity (subcutaneous): 1.1E+05
Average fluorescence intensity (tail vein): 4.2E+05

CCCCCCCCCOC(=O)CCCCCCCN(CCCCCCCC(=O)OC(CCCCCCCC)CCCCCCCC)CCCN(C)C [Compound 37, reference compound]
Average fluorescence intensity (intramuscular): 2.5E+06
Average fluorescence intensity (subcutaneous): 2.0E+05
